# Reference: patent US20190321311A1, “Cancer Treatment by Simultaneous Targeting Energy Metabolism and Intracellular pH” (Deutsches Krebsforschungszentrum, priority 2016, published 2019)
# Like-named read-outs stand apart in the source and are kept apart here.
# Legend:
# [1] = tested on: Mouse melanoma B16F10; assay: Cell viability assay, CellTiter-Glo, B16F10
# Protocol: (§1) Indicated cells were treated with indicated drug combinations for 48 h or as indicated in conditions imitating tumor environment—RPMI supplemented with 10% FCS and 20 mM PIPES, adjusted to pH 6.5. After treatment, cells were analyzed for cell viability: • using CellTiter-Blue® Cell Viability Assay, Promega according to manufacturer recommendations. For each treatment, the fraction (%) of viable cells are indicated. Untreated viable cells were set to 100%. Average data of 2 independent experiments are presented. Each independent experiment contained 4 biological replicates for each condition. • using CellTiter-Glo® Cell Viability Assay, Promega according manufacturer recommendations. For each treatment the fraction (%) of viable cells are indicated. Untreated viable cells were set to 100%. Each measurement represents the mean value of 4 biological replicates for each condition.
# [2] = tested on: Sox4; type: cell-based; settings: non-malignant HEK293t cells, Metformin 72 hours
# Protocol: (§2) For gene expression measurement, cells were seeded in 6 well plates. On the following day, cells were treated with 6 mM Metformin for 48 h in normal RPMI medium supplemented with 10% FCS. Cells were harvested using Trypsin/EDTA and divided in up to 3 aliquots. A first aliquot was used for RNA preparation using RNeasy kit (Qiagen) and subsequent quantitative reverse transcription-PCR (qRT-PCR) analysis with LC480 LightCycler (Roche). A second aliquot was extracted with Saponin buffer (0.05% Saponin, 1 mM MgCl2, 1×TBS, 2 mM ME, 1× protein inhibitor cocktail (Roche) for obtaining cytoplasmic protein fraction. This fraction was used for b-catenin protein detection. Third aliquot was extracted with Triton lysis buffer ((TBS (50 mM Tris pH7.4, 150 mM NaCl, 2.7 mM KCl), 1% Triton X-100, 2 mM β-mercaptoethanol (ME), 1 mM MgCl2, 10 mM sodium pyrophosphate, 10 mM NaF, 1× proteinase inhibitor cocktail). This aliquot was used for Sox4 and a-tubulin (control) protein detection. For second and third aliquots 20-35 μl of buffer was used for 500 000 cells. After centrifugation extracts were used for Western blot analysis.
# Experiments were done as in example 3. Cells were densely seeded on 6-well plates. […] For non-cancer HEK293Tcells, non modified RPMI medium supplemented with 10% FCS was used. Cells were extracted only in Triton lysis buffer (as in example 3) and analyzed in Western Blot.
# [3] = tested on: Sox4; type: cell-based; settings: Metformin 72 hours
# Protocol: Cells were densely seeded on 6-well plates. Starting on the following day, cells were treated with indicated drug combinations for 48 h in conditions imitating tumor environment: RPMI supplemented with 10% FCS and 20 mM PIPES, adjusted to pH 6.5. For non-cancer HEK293Tcells, non modified RPMI medium supplemented with 10% FCS was used. Cells were extracted only in Triton lysis buffer (as in example 3) and analyzed in Western Blot.
# Cells were treated with combined preparations (Nigericin 10 nM, Rotenone 5 nM, Papaverine HCl 1 μm; Salinomycin 10 nM) with or without addition of NAC (N-acetyl cysteine) 1 mM, DOX (Doxycycline) and Minocycline 20 μM, Trolox (soluble form of vitamin E) 100 μM.
# [4] = tested on: H1975 cells; type: cell-based; settings: H1975 cells expressing EC-GFP, Metformin for 48 hours
# From the text: FIG. 1: Treatment with Metformin and combined preparations causes an intracellular pH drop in cancer cell lines. Intracellular pH measurements were done in cells expressing a pH sensitive variant of GFP (EC-GFP). Live cells were imaged at 405 nm and 488 nm excitation wavelengths to record control and pH-sensitive emissions, correspondingly. Eight biological replicates were done for each treatment. Error bars correspond to mean values±s.d.; P≤0.0001. a. […] Confocal microscopy of H1975 and HEK293 live cells expressing EC-GFP treated with Metformin for 48 hours. To rule out a possibility that GFP signal fading is due to degradation, after exposure to the drug, cells were transferred to media with pH 8.8 supplemented with 5 μM Nigericin for 30 minutes before re-imaging (Metformin pH 8.8 rescue). b, c. […] Intracellular pH measurements were done after cells were treated alone or in combination with Rotenone or/and Nigericin, and with Papaverine or/and Salinomycin for 27 or 48 hours in pH 6.5 buffer, as indicated.
# Intracellular pH in indicated cancer cell lines and non-cancer 293T cells was measured using cell lines stabile expressing pH sensitive EC-GFP at two different excitation wave length to obtain 488 nm/405 nm ratios. […] 488/405 ratios were quantified using ImageJ (NIH) software.
# [5] = tested on: Lung cancer H1975; assay: Cell viability assay, CellTiter-Glo, H1975; settings: Homo sapiens, NCI-H1975, 72 h, pH 6.5, read-out: fraction (%) of viable cells
# Protocol: as §1
# [6] = tested on: Wnt signaling pathway; type: cell-based; settings: cancer cell lines (FIG. 2A), 6 mM Metformin
# Protocol: as §2
# Experiment was done as in example 3. […] CHOP protein was detected in Triton lysis buffer extract.
# [7] = tested on: Colon cancer DLD1 cells; assay: Cell viability assay, CellTiter-Blue, DLD1; settings: Homo sapiens, DLD-1, 72 h, pH 6.5, read-out: fraction (%) of viable cells
# Protocol: as §1
# [8] = tested on: Colon cancer DLD1 cells; assay: Cell viability assay, CellTiter-Glo, DLD1
# Protocol: as §1
# [9] = tested on: Lung cancer H1975 cells; assay: Cell viability assay, CellTiter-Blue, H1975; settings: Homo sapiens, NCI-H1975, 48 h, pH 6.5, read-out: fraction (%) of viable cells
# Protocol: as §1
# [10] = tested on: Melanoma A375 cells; assay: Cell viability assay, CellTiter-Glo, A375; settings: Homo sapiens, A-375, 48 h, pH 6.5, read-out: fraction (%) of viable cells
# Protocol: as §1
# [11] = tested on: Pancreas cancer Bxpc3 cells; assay: Cell viability assay, CellTiter-Glo, Bxpc3; settings: Homo sapiens, BXPC-3, 48 h, pH 6.5, read-out: fraction (%) of viable cells
# Protocol: as §1
# [12] = tested on: Breast cancer MDA-MB-231 cells; assay: Cell viability assay, CellTiter-Blue, MDA-MB-231; settings: Homo sapiens, MDA-MB-231, 48 h, pH 6.5, read-out: fraction (%) of viable cells
# Protocol: as §1
# [13] = tested on: Prostate cancer PC3 cells; assay: Cell viability assay, CellTiter-Glo, PC3; settings: Homo sapiens, PC-3, 48 h, pH 6.5, read-out: fraction (%) of viable cells
# Protocol: as §1
# [14] = Homo sapiens, DLD-1, 72 h, pH 6.5, read-out: fraction (%) of viable cells
smiles,measurement,setting,value
"Nc1ncnc2c1nc(Sc1ccc(Cl)cc1)n2[C@@H]1O[C@@H]2COP(=O)([O-])O[C@H]2[C@H]1O.[Na+] [8-CPT-cAMP, 8-(4-Chlorophenylthio)-adenosine-3′,5′-cyclic monophosphate]",relative values of cell viability,"[1]; 8-CPT-cAMP 100 μM alone, 48 h, pH 6.5",86%
"C=C[C@@]1(C)CC(=O)[C@]2(O)[C@@]3(C)[C@@H](O)CCC(C)(C)[C@@H]3[C@H](O)[C@H](OC(C)=O)[C@@]2(C)O1 [Forskolin, forskolin]",viability at 10 µM,"[1]; Mus musculus, B16-F10, 48 h, pH 6.5, read-out: relative values of cell viability, Forskolin 10 μM alone, pH 6.5",78%
CO[C@@H]1[C@@H](OC)[C@H](C)[C@@](O)(CC(=O)O)O[C@H]1[C@H](C)[C@H]1O[C@@]2(CC[C@@](C)([C@H]3CC[C@@](C)([C@@H]4O[C@@H]([C@H]5O[C@](C)(O)[C@H](C)C[C@@H]5C)C[C@@H]4O[C@@H]4C[C@H](OC)[C@@H](OC)[C@H](C)O4)O3)O2)C[C@H](O)[C@H]1C [Maduramicin],viability at 0.004 µM,"[1]; Mus musculus, B16-F10, 48 h, pH 6.5, read-out: fraction (%) of viable cells, Maduramicin 4.00 nM, Phenformin 0.00 μM, pH 6.5",111%
CN(C)C(=N)N=C(N)N [Metformin],expression of Sox4,[2],has no effect on Sox4
same,expression of endogenous Sox4,[3]; DLD1 and HCT116 cells,inhibits expression of endogenous Sox4
same,Wnt-inducible Sox4 expression,"[3]; H1703 and H1299 cells, Wnt3a conditioned media 48 hours",inhibits Wnt-inducible Sox4
same,expression of endogenous Sox4,[3]; H1975 cells,inhibits expression of endogenous Sox4
same,viability at 750 µM,"[1]; Mus musculus, B16-F10, 48 h, pH 6.5, read-out: fraction (%) of viable cells, Metformin 750 μM, Monensin 0.00 nM, pH 6.5",80%
same,viability at 1500 µM,"[1]; Mus musculus, B16-F10, 48 h, pH 6.5, read-out: fraction (%) of viable cells, Metformin 1500 μM, Monensin 0.00 nM, pH 6.5",84%
same,viability at 3000 µM,"[1]; Mus musculus, B16-F10, 48 h, pH 6.5, read-out: fraction (%) of viable cells, Metformin 3000 μM, Monensin 0.00 nM, pH 6.5",9%
same,intracellular pH,[4],causes intracellular acidification
same,viability at 94 µM,[5],84%
same,viability at 188 µM,[5],70%
same,viability at 375 µM,[5],45%
same,"wnt signaling (Axin2 mRNA, cytoplasmic b-catenin)",[6],wnt signaling inhibitor
CC[C@@]1([C@@H]2O[C@@H]([C@H]3O[C@@](O)(CO)[C@H](C)C[C@@H]3C)C[C@@H]2C)CC[C@H]([C@]2(C)CC[C@]3(C[C@H](O)[C@@H](C)[C@@H]([C@@H](C)[C@@H](OC)[C@H](C)C(=O)O)O3)O2)O1 [Monensin],viability at 0.004 µM,"[1]; Mus musculus, B16-F10, 48 h, pH 6.5, read-out: fraction (%) of viable cells, Monensin 4.00 nM, Metformin 0.00 μM, pH 6.5",111%
same,viability at 0.004 µM,"[1]; Mus musculus, B16-F10, 48 h, pH 6.5, read-out: fraction (%) of viable cells, Monensin 4.00 nM, Phenformin 0.00 μM, pH 6.5",95%
same,viability at 0.005 µM,[5],55%
same,viability at 0.005 µM,[7],88%
same,viability at 0.01 µM,[7],72%
same,viability at 0.02 µM,[7],55%
same,fraction (%) of viable cells,"[8]; human, 72 h, 5 nM, pH 6.5",112%
CO[C@@H]1C[C@@H](C[C@H]2CC[C@H](C)[C@H]([C@@H](C)C(=O)O)O2)O[C@]2(O[C@](C)([C@H]3CC[C@@](C)([C@@H]4O[C@@H]([C@H]5O[C@@](O)(CO)[C@H](C)C[C@@H]5C)C[C@@H]4C)O3)C[C@H]2C)[C@@H]1C [Nigericin],viability at 0.0025 µM,[9],93%
same,viability at 0.005 µM,[9],95%
same,viability at 0.00125 µM,[10],58%
same,viability at 0.0025 µM,[10],7%
same,viability at 0.005 µM,[11],39%
same,viability at 0.01 µM,[11],35%
same,viability at 0.0025 µM,[12],98%
same,viability at 0.005 µM,[12],101%
same,viability at 0.005 µM,[13],31%
same,viability at 0.01 µM,[13],0%
same,viability at 0.005 µM,[8]; [14],107%
same,viability at 0.01 µM,[8]; [14],103%
[H]/N=C(/N)N/C(=N/[H])NCCc1ccccc1 [Phenformin],viability at 4 µM,"[1]; Mus musculus, B16-F10, 48 h, pH 6.5, read-out: fraction (%) of viable cells, Phenformin 4 μM, Maduramicin 0.00 nM, pH 6.5 (Table 12)",82%
same,viability at 4 µM,"[1]; Mus musculus, B16-F10, 48 h, pH 6.5, read-out: fraction (%) of viable cells, Phenformin 4 μM, Monensin 0.00 nM, pH 6.5 (Table 11)",82%
same,viability at 8 µM,"[1]; Mus musculus, B16-F10, 48 h, pH 6.5, read-out: fraction (%) of viable cells, Phenformin 8 μM, Maduramicin 0.00 nM, pH 6.5 (Table 12)",76%
same,viability at 8 µM,"[1]; Mus musculus, B16-F10, 48 h, pH 6.5, read-out: fraction (%) of viable cells, Phenformin 8 μM, Monensin 0.00 nM, pH 6.5 (Table 11)",76%
same,viability at 16 µM,"[1]; Mus musculus, B16-F10, 48 h, pH 6.5, read-out: fraction (%) of viable cells, Phenformin 16 μM, Maduramicin 0.00 nM, pH 6.5 (Table 12)",56%
same,viability at 16 µM,"[1]; Mus musculus, B16-F10, 48 h, pH 6.5, read-out: fraction (%) of viable cells, Phenformin 16 μM, Monensin 0.00 nM, pH 6.5 (Table 11)",56%
C=C(C)[C@H]1Cc2c(ccc3c2O[C@@H]2COc4cc(OC)c(OC)cc4[C@@H]2C3=O)O1 [Rotenone],viability at 0.0025 µM,[9],103%
same,viability at 0.005 µM,[9],104%
same,viability at 0.01 µM,[9],110%
same,viability at 0.02 µM,[9],84%
same,viability at 0.00125 µM,[10],96%
same,viability at 0.0025 µM,[10],91%
same,viability at 0.005 µM,[10],75%
same,viability at 0.005 µM,[11],104%
same,viability at 0.01 µM,[11],89%
same,viability at 0.02 µM,[11],59%
same,viability at 0.0025 µM,[12],98%
same,viability at 0.005 µM,[12],102%
same,viability at 0.01 µM,[12],99%
same,viability at 0.02 µM,[12],81%
same,viability at 0.005 µM,[13],45%
same,viability at 0.01 µM,[13],4%
same,viability at 0.02 µM,[13],1%
same,viability at 0.005 µM,[7],87%
same,viability at 0.005 µM,[8]; [14],96%
same,viability at 0.01 µM,[8]; [14],89%
same,viability at 0.02 µM,[8]; [14],67%
